{"source": "patent US7524840B2", "about": "“7,8-disubstituted pyrazolobenzodiazepines” (Hoffmann-La Roche Inc., priority 2004, dated 2009)", "key": {"[1]": {"test_system": "HCT-116", "assay": "HCT-116 (colon) cell-based MTT proliferation assay", "settings": "Homo sapiens, HCT-116, 96 h, 4 days post addition of test compound, read-out: Antiproliferative Activity HCT 116 (colon) Assay IC50", "experimental": "The estrogen receptor negative epithelial breast carcinoma line (MDA-MB-435) was purchased from American Type Cell Culture Collection (ATCC; Rockville, Md.) and was grown in the medium recommended by ATCC. For analysis of the effect of the test compounds on growth of these cells, the cells were plated at 2000 cells per well in a 96-well tissue culture plate, and were incubated overnight at 37° C. with 5% CO2. The next day, the test compounds were dissolved in 100% dimethyl sulfoxide (DMSO) to yield a 10 mM stock solution. Each compound was diluted with sterile medium to 1 mM in a sufficient quantity to yield a final concentration of 120 μM. The compounds were then serially diluted in medium with 1.2% DMSO. One-fourth final volume of the diluted compounds was transferred to 96 well plates. Test compounds were assayed in duplicate. DMSO was added to a row of “control cells” such that the final concentration of DMSO in each well was 0.3%. Wells to which no cells were added served as the “blank.” Wells to which no inhibitor was added served as “no inhibitor control”. The plates were returned to the incubator, and 5 days post addition of test compound, were analyzed as described below.\n3-(4,5-Dimethylthiazole-2-yl)-2,5-diphenyl-2H-tetrazolium bromide (thiazolyl blue; MTT) was added to each well to yield a final concentration of 1 mg/mL. The plates were then incubated at 37° C. for 3 hours. The plates were centrifuged at 1000 rpm for 5 minutes prior to aspiration of the MTT-containing medium. The MTT-containing medium was then removed and 100 μL 100% ethanol was added to each well to dissolve the resulting formazan metabolite. To ensure complete dissolution, plates were shaken for 15 minutes at room temperature. Absorbencies were read in a microtiter plate reader (Molecular Dynamics) at a wavelength of 570 nm with a 650 nm reference. Percent inhibition was calculated by subtracting the absorbance of the blank (no cell) wells from all wells, then subtracting the division of the average absorbance of each test duplicate by the average of the controls from 1.00. Inhibitory concentrations (IC50) were determined from the linear regression of a plot of the logarithm of the concentration versus the percent inhibition.\nThe colon adenocarcinoma line SW480 and the colon carcinoma line HCT-116 also were obtained from the ATCC and were tested according to the same protocol provided above for MDA-MB-435 cell based assay with the following modifications. Cell line SW480 was plated at 1000 cells per well and analyzed at 6 days post addition of the test compound. Cell line HCT-116 was plated at 1000 cells per well and analyzed at 4 days post addition of test compound."}, "[2]": {"biological_target": "T1, KDR (Homo sapiens, UniProt P35968)", "T1 construct": "EEE tag", "T1 sequence (P35968 20-1356, species assumed)": "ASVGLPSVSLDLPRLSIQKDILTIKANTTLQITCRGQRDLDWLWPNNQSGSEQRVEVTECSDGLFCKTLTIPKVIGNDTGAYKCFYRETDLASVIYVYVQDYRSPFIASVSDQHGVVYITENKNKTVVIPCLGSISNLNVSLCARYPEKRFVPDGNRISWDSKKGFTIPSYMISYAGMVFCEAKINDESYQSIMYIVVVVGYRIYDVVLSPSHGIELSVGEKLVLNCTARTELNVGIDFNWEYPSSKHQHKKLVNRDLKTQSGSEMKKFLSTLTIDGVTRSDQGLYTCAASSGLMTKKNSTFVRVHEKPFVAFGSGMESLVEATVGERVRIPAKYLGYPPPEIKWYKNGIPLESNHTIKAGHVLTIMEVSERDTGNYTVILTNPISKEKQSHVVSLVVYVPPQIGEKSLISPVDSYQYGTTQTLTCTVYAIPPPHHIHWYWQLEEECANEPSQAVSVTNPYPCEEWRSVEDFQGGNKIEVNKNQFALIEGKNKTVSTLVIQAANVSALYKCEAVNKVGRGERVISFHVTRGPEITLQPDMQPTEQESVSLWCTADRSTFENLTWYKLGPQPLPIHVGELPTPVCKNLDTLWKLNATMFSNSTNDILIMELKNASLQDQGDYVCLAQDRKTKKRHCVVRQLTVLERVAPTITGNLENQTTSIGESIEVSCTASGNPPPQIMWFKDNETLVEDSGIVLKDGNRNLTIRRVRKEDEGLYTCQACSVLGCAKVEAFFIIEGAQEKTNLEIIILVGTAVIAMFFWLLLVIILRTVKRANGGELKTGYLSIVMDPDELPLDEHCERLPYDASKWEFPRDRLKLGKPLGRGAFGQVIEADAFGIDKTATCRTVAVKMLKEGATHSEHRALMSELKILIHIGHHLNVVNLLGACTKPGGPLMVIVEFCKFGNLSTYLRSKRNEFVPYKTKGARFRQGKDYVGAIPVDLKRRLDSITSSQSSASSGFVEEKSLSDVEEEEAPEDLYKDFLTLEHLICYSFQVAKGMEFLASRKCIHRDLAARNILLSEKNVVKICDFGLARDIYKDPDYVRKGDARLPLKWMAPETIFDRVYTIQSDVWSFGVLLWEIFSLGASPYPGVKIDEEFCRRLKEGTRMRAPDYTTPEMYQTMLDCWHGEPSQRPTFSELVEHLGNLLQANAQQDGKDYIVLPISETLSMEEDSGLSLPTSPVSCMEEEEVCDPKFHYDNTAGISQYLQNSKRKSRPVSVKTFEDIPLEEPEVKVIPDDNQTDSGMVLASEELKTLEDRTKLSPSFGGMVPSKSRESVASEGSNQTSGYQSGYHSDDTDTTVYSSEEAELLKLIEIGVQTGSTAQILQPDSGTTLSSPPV", "assay": "KDR kinase HTRF assay", "format": "biochemical", "settings": "1 nM activated KDR, 0.3 mM ATP, 37° C. for 30 minutes; read-out: Inhibition of KDR IC50", "experimental": "(§1) To determine inhibition of KDR and FGFR, kinase assays were conducted using an HTRF (Homogeneous Time Resolved Fluorescence) assay. This assay is described in A. J. Kolb et. al., Drug Discovery Today, 1998, 3(7), p 333.\nPrior to kinase reaction, recombinant EEE-tagged KDR was activated in the presence of activation buffer (50 mM HEPES, pH 7.4, 1 mM DTT, 10% glycerol, 150 mM NaCl, 0.1 mM EDTA, 26 mM MgCl2, and 4 mM ATP). The enzyme was incubated at 4° C. for 1 hour.\nKinase activity assays were performed in 96-well polypropylene plates (Falcon) with a total volume of 90 μL in each well. Each well contained 1 μM KDR substrate (Biotin-[…]), 1 nM activated KDR, and a test compound with one of 8 assay concentrations ranging from […] to […] (1:5 serial dilution). […] The reaction was incubated at 37° C. for 30 minutes. To stop the KDR reaction, 72 μL of reaction mixture was transferred into a STOP plate containing 18 μL of revelation buffer (20 mM EDTA, 50 mM HEPES, pH 7.4, 0.02% BSA, 10 nM Eu-labelled anti-pY antibody (final conc. 2 nM), and 100 nM streptavidin (final conc. 20 nM)). After mixing, 35 μL of solution was transferred into duplicate wells of a 384-well black plate (Costar), and read at 615/665 nm on a Wallac Victor 5 reader.\n(§2) Compound IC50 values were determined from duplicate sets of data, and calculated by using Excel and fitting data to equation Y=[(a−b)/{1+(X/c)^d]+b, where a and b are enzyme activity in the presence of no test inhibitor compound and an infinite amount of inhibitor test compound, respectively, c is the IC50 and d is the hill constant of the compound response. The IC50 value is the concentration of test compound that reduces by 50% the enzyme activity under the test conditions described."}, "[3]": {"biological_target": "T2, FGFR", "T2 construct": "fused on or other part: GST tag", "assay": "FGFR kinase HTRF assay", "format": "biochemical", "settings": "1.5 nM activated FGFR, 10 μM ATP; read-out: Inhibition of FGFR IC50", "experimental": "as §1\nFGFR activity assays were carried out as described above for the KDR activity assay with the following differences. GST-tagged FGFR enzyme was activated at room temperature for 1 hour in the following activation buffer: 100 mM HEPES, pH 7.4, 50 mM NaCl, 20 mM MgCl2, and 4 mM ATP. […] The rest of the assay was performed in the same manner as KDR assay.\nas §2"}}}
{"smiles": "COc1cc2c(cc1Br)C(c1ccccc1Cl)=Nc1c(n[nH]c1C)N2", "values": [{"measurement": "melting point", "value": "210 to 211", "unit": "°C"}]}
{"smiles": "COc1cc2c(cc1F)C(c1ccccc1Cl)=Nc1c[nH]nc1N2", "values": [{"measurement": "melting point", "value": "242 to 243", "unit": "°C"}]}
{"smiles": "COc1cc2c(cc1C#N)C(c1ccccc1Cl)=Nc1c[nH]nc1N2", "values": [{"measurement": "melting point", "value": "288 to 290", "unit": "°C"}]}
{"smiles": "COc1cc2c(cc1C)C(c1ccccc1Cl)=Nc1c[nH]nc1N2", "values": [{"measurement": "melting point", "value": "275 to 276", "unit": "°C"}]}
{"smiles": "COCCOc1cc2c(cc1OC)C(c1ccccc1Cl)=Nc1c(n[nH]c1C)N2", "note": "[IVgg, 5-(2-chlorophenyl)-1,2-dihydro-7-methoxy-8-methoxyethoxy-3-methyl-pyrazolo[3,4-b][1,4]benzodiazepine]", "values": [{"measurement": "IC50", "setting": "[1]", "value": 197, "unit": "nM"}]}
{"smiles": "Cc1[nH]nc2c1N=C(c1ccccc1Cl)c1cc(F)c(OCCCN3CCOCC3)cc1N2", "note": "[IVi, 5-(2-chlorophenyl)-1,2-dihydro-7-fluoro-8-(3-(4-morpholinyl)propoxy)-3-methyl-pyrazolo[3,4-b][1,4]benzodiazepine]", "values": [{"measurement": "IC50", "setting": "[2]", "value": 31, "unit": "nM"}]}
{"smiles": "Cc1[nH]nc2c1N=C(c1ccccc1Cl)c1cc(C#N)c(OCCCN3CCOCC3)cc1N2", "note": "[IVk, 5-(2-chlorophenyl)-7-cyano-1,2-dihydro-8-(3-(4-morpholinyl)propoxy)-3-methyl-pyrazolo[3,4-b][1,4]benzodiazepine]", "values": [{"measurement": "IC50", "setting": "[3]", "value": 33, "unit": "nM"}]}
{"smiles": "COCCOc1cc2c(cc1OC)Nc1n[nH]c(C)c1N=C2c1ccccc1Cl", "note": "[IVkk, 5-(2-chlorophenyl)-1,2-dihydro-8-methoxy-7-methoxyethoxy-3-methyl-pyrazolo[3,4-b][1,4]benzodiazepine]", "values": [{"measurement": "IC50", "setting": "[2]", "value": 24, "unit": "nM"}, {"measurement": "IC50", "setting": "[1]", "value": 509, "unit": "nM"}]}
